The results in this text go back to article PMC10641818, “Development of First-in-Class Dual Sirt2/HDAC6 Inhibitors as Molecular Tools for Dual Inhibition of Tubulin Deacetylation” (Journal of Medicinal Chemistry, 2023).

SMILES strings stand for the structures.

Test [1] has as its system α-tubulin acetylation. Kind of test: Immunofluorescence microscopy of α-tubulin acetylation in PC-3M-luc cells. The conditions noted are these: 20 μM, 5 h. The class given is cell-based. How it is done: The detection of acetylation levels of α-tubulin by immunofluorescence was performed as previously described.[47] In brief, PC-3M-luc cells (25 000 cells per well) were plated in Ibidi 8-well slides (Ibidi, catalogue no. 80826) and incubated overnight at 37 °C, 5% CO2. Next, cells were treated with 20 μM of inhibitor. After 5 h, the medium was removed and the cells washed with PBS and fixed with 4% PFA for 8–10 min at ambient temperature. Cells were rinsed three times with PBS and lysed with extraction buffer (PBS, 0.1% Triton X-100) for 3–5 min at ambient temperature. After another washing step with PBS, blocking buffer (PBS, 0.1% Triton, 5% FCS) was added for at least 10 min before incubating with monoclonal acetylated α-tubulin antibody (1:500, Sigma-Aldrich, catalogue no. T6793) in blocking buffer overnight at 4 °C. […] The cells were rinsed two times with blocking buffer and once with PBS and DAPI in mounting medium ([…] HardSet Antifade Mounting Medium with DAPI, no. H-1500-10) diluted 1:50 in PBS was added and it was incubated for 10 min in the dark. Confocal microscopy was performed with a Leica SP8 confocal microscope equipped with a 40×/1.40 oil objective (Leica Microsystems) keeping the laser settings of the images constant to allow direct comparison of signal intensities between images.

The target of test [2] is Sirt2 (demyristoylation) (Homo sapiens, UniProt Q8IXJ6). Put plainly: Continuous Sirt2 demyristoylation assay (myristoylated peptide substrate). The class given is biochemical. The conditions noted are these: peptide-based myristoylated substrate, triplicate; read-out: Sirt2-mediated demyristoylation IC50. How it is done:
As a second method to confirm the inhibition of Sirt2-mediated demyristoylation by 33, we used a continuous Sirt2 demyristoylation assay as reported by Zessin et al.[48] In brief, this assay was performed in a black 384-well fluorescence plate in a total volume of 40 μL of Sirt assay buffer (20 mM Tris-HCl, 150 mM NaCl, 5 mg/mL MgCl2, 2 mg/mL BSA, pH 7.8). Dilution series of the inhibitor was done in DMSO. A total of 2 μL of the inhibitor dilutions were incubated with 14 μL of the peptide substrate, referred to as F4 in Zessin et al.[48] (final concentration 40 nM) and 14 μL of Sirt2 solution (final concentration 1 nM) for 5 min at room temperature. In addition to the inhibitor-containing samples, a sample without inhibitors was measured as a positive control, and a sample without enzymes was measured as a negative control. The DMSO concentration was set to 5% (v/v). The reaction was started by the addition of 10 μL of NAD^+ (final concentration 500 μM). The product formation was monitored by the change in fluorescence intensity, and the reaction rate represented the activity. Fluorescence readout was performed with a BMG Fluostar Omega plate reader at following wavelengths: Excitation wavelength: λEx = 485 ± 10 nm, emission wavelength: λEm = 530 ± 10 nm. Inhibition was calculated using the following equation: [drawing 1] […]

Test [3] concerns MCF-7 breast cancer cells. Kind of test: Cell viability assay (MTT) MCF-7. The class given is cell-based. To be noted: 72 h, @ 50 μM. How it is done: (§1) Cell viability assays of HGC27 and PC-3M-luc cells were performed by using the Celltiter 96 Aqueous Nonradioactive Proliferation Assay (Promega). Cells were seeded in sterile 96-well plates at a density of 2000 cells per well and incubated overnight at 37 °C and 5% CO2. Compound or vehicle were added to a final concentration of 0.5% DMSO. […] Cells were seeded at densities of 10^4 cells/well for W1 cells or 2 × 10^3 cells/well for MCF-7 cells. Tests were performed in 96-well plates (Sarstedt AG, Nümbrecht, Germany). After incubation overnight, cells were supplemented with half logarithmic dilution series of the indicated compounds and DPBS (PAN Biotech GmbH, Aidenbach, Germany) as control. Then 72 h after addition of cytostatic treatment, the MTT solution (20 μL, 5 mg/mL) was added into the wells for 1 h at 37 °C and 5% CO2 until formazan crystals were formed. The supernatant was removed, and the cells were dissolved in 200 μL of DMSO. Absorption was analyzed at 570 nm, with background subtraction at 690 nm, using a plate reader (Thermomultiscan EX, Thermo, Schwerte, Germany). Cell viability was then determined by nonlinear regression and a four-parameter logistic equation with variable hill slope. […] The significance of the difference of the effects of 33 and 4 + 57 was determined by using an unpaired, two-tailed t test with Welch’s correction, implemented in GraphPad Prism 8.4.0 (GraphPad, USA). Statistical significance was accepted if p < 0.05. Asterisks indicate *p < 0.05, **p < 0.01.

Test [4] has as its system PC-3M-luc prostate cancer cells. Kind of test: Cell viability assay (MTS) PC-3M-luc. The conditions noted are these: 72 h, @ 50 μM. The class given is cell-based. The procedure:
as §1

Test [5] concerns W1 ovarian cancer cells. Put plainly: Cell viability assay (MTT) W1. The class given is cell-based. The conditions noted are these: 72 h, @ 50 μM. The procedure:
as §1

Test [6] has as its system HGC27 gastric carcinoma cells. Kind of test: Cell viability assay (MTS) HGC27. The class given is cell-based. The conditions noted are these: 72 h, @ 50 μM. How it is done:
as §1

In test [7] the test system is histone H3 acetylation (marker of HDAC1-3 inhibition). Kind of test: Western blot on histone H3 hyperacetylation in MCF-7 cells. The conditions noted are these: 24 h, 10 µM. The test is classed as cell-based. How it is done: Western blots on histone H3 hyperacetylation in MCF-7 cells were performed according to a previously published protocol.[72] In brief, MCF-7 were centrifuged (450g, 4 min, 22 °C) and lysed with cell extraction buffer (Thermo Fisher), supplemented with 0.1 mM PMSF, Halt Protease Inhibitor (Thermo Fisher), and Natriumorthovanadat (Thermo Fisher). Precast gels with a polymerization degree of 4–15% were used (Mini-PROTEAN TGX Stain-Free; Bio-Rad Laboratories GmbH, Munich, Germany). Proteins were transferred to Trans-Blot Turbo-PVDF membrane (Bio-Rad). The membrane was blocked with skimmed milk powder in Tris-buffered saline-Tween 20 (with 0.2% Tween 20) for 60 min, followed by three washing cycles of 10 min using Tris-buffered saline-Tween 20. Afterward, membranes were incubated with primary antibodies for ac.-Histon H3 (Cell Signal, rabbit) and GAPDH (Gene Tex, Irvine, USA, mouse) for a total of 60 min at room temperature and then incubated at 4 °C overnight. […] After rinsing of the secondary antibody, membranes were detected using ClarityECL Western Blotting Substrate (Bio-Rad). For quantitative determination, the StainFree technique was employed (Bio-Rad), as well as normalization, against the housekeeping protein GAPDH, which allows the imaging of whole lysates in SDS-PAGE before blotting and normalization against the total protein. […]
Background: A western blot detects proteins with antibodies after separation by electrophoresis.

Sequence of Sirt2 (demyristoylation) (Q8IXJ6 whole entry): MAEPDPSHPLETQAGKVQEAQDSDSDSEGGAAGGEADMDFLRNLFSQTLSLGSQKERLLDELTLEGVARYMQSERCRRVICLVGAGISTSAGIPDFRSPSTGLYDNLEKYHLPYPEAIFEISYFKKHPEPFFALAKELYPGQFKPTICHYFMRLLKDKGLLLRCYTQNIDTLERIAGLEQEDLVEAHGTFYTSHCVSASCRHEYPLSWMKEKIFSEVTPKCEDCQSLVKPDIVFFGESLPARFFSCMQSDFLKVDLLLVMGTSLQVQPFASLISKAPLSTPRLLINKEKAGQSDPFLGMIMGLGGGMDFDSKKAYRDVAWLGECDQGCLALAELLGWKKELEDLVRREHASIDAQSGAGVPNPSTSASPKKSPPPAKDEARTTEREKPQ

Broadly, the IC50 is the concentration needed to halve the response being measured. `COCCn1cc(COc2cccc(Cc3cnc(NC(=O)CSc4nc(C)cc(C)n4)s3)c2)nn1` [Compound 5, SirReal1.2, reference compound]: in test [1], the “α-tubulin acetylation (immunofluorescence)” value is “very minor”. For the same molecule, the IC50 in test [2] worked out at 480 ± 120 nM.

`Cc1cc(C)nc(SCC(=O)Nc2ncc(Cc3cccc(OCc4cn(CCCCC(=O)NCc5ccc(C(=O)NO)cc5)nn4)c3)s2)n1` [Compound 32, 4-((5-(4-((3-((2-(2-((4,6-Dimethylpyrimidin-2-yl)thio)acetamido)thiazol-5-yl)methyl)phenoxy)methyl)-1H-1,2,3-triazol-1-yl)pentanamido)methyl)-N-hydroxybenzamide]: the MCF-7 cellular effect result in test [3] is reported as “ni ^b (ni = no inhibition (cellular effect <20% @ 50 μM))”. The PC-3M-luc cellular effect result in test [4] was “ni ^b (ni = no inhibition (cellular effect <20% @ 50 μM))”. In addition, the W1 cellular effect entry in test [5] is “ni ^b (ni = no inhibition (cellular effect <20% @ 50 μM))”. Further, the HGC27 cellular effect entry in test [6] was “ni ^b (ni = no inhibition (cellular effect <20% @ 50 μM))”. Also, in test [7], the “Histone H3 hyperacetylation (cellular class I HDAC off-target inhibition)” value is “no significant off-target inhibition of class I”.
